Results from patent US4631292A, “1,3-dioxane derivatives, method of their synthesis and anti-peptic ulcer agent” (Kotobuki Seiyaku Co., Ltd., priority 1983, dated 1986).

What was measured:
[1] = test system: aspirin-induced pylorus-ligated rats; experiment: Aspirin-induced ulcer in pylorus-ligated rats (method of S. Okabe); assay type: in vivo; settings: oral dose 500 mg/kg
Procedure: (1) The effect of the compounds of the invention is examined by using aspirin-induced pylorus-ligated rats according to the methods of S. Okabe (Oyo-Yakuri 9 (1), 31-37 1975). The test compounds are given orally at a dose of 500 mg./kg.

ethanol induced ulcer = experiment: Ethanol induced ulcer (method of L. Robert, modified); assay type: in vivo; settings: ethanol/HCl induced ulcer, rats; for ulcer index (mm): 30 min before ethanol, 1 hour after ethanol
Procedure: (2) The effect on ethanol induced ulcer is examined according to the method of L. Robert (Gastroenterology 77,433-443, 1979) with some modification. Rats are fasted for 24 hrs. and after 30 min. of the oral test drug administration, 1 ml. of 60% ethanol of 150 mM hydrochloric acid solution is given.
Exactly 1 hour later, the animals are sacrificed and the stomach is removed to examine their ulcer index.

| Compound | % inhibition [1] [%] | ulcer index (mm) ± S.E. [1] [mm] | % inhibition (ethanol induced ulcer; oral dose 100 mg/kg) [%] | ulcer index (mm) (ethanol induced ulcer; oral dose 100 mg/kg) | % inhibition (ethanol induced ulcer; oral dose 500 mg/kg) [%] | ulcer index (mm) (ethanol induced ulcer; oral dose 500 mg/kg) |
| --- | --- | --- | --- | --- | --- | --- |
| CC(C)=CCCC1OCCC(C)O1 (centres unmarked) [Compound 1, 2-(4-methyl-3-pentene)-6-methyl-1,3-dioxane] | 50.6 | 11.0 ± 2.98 |  |  |  |  |
| CC(C)=CCCC(C)CC1OCCC(C)O1 (centres unmarked) [Compound 2, 2-(2,6-dimethyl-5-heptene)-6-methyl-1,3-dioxane] | 35.9 | 27.8 ± 7.1 |  |  |  |  |
| CC(C)=CCCC1(C)OCCC(C)O1 (centres unmarked) [Compound 5, 2-(4-methyl-3-pentenyl)-2-methyl-4-methyl-1,3-dioxane] | 88.1 | 2.2 ± 0.8 | 59.7 | 27.1 ± 7.3 | 95.1 | 3.3 ± 1.2 |
| CC1CCC(C(C)C)C2(C1)OCCC(C)O2 (centres unmarked) [Compound 6, spiro[2isopropyl-5-methyl-cyclohexane-1,2'-4'-methyl 1',3']dioxane] | 53.9 | 10.3 ± 4.16 |  |  |  |  |
| CC(C)=CCCC1(C)OC(C)CC(C)O1 (centres unmarked) [Compound 11, 2-(4-methyl-3-pentenyl)-2-methyl-4,6-dimethyl-1,3-dioxane] | 33.7 | 14.5 ± 5.12 |  |  |  |  |
